am‑phg = not defined here; PRG = not defined here
Tests used:
[1] = test system: LLFGLALIEV-specific CD8+ T cells; assay: Mouse vaccination study, LLFGLALIEV tetramer analysis of blood; assay type: in vivo; conditions: mice vaccinated with 100 µg peptide with IFA and CpG; compared with LLFGLALIEV vaccinated mice, at all times after day one
Source text: (§1) Three mouse vaccination studies were done using three different wild-type epitopes. In all cases, mice were vaccinated with the peptide supplemented with incomplete freunds ajuvant (IFA) and CpG. Analysis was done by analyzing blood samples with tetramers loaded with wild-type peptide in all cases.
This was done for both groups of mice.

[2] = test system: […]-specific CD8+ T cells; assay: Mouse vaccination study, […] tetramer analysis of blood; assay type: in vivo; conditions: mice vaccinated with 5 µg peptide with IFA and CpG, booster at day 97; compared with […] vaccinated mice, at all times
Procedure: as §1
Two groups of three mice were vaccinated with 5 µg of either […] or [am-phg][NVA]AGIGILT[PRG]. At day 97, mice were administred a second dose (booster). At several timepoints blood was taken and tested for […]-specific CD8+ T cells using tetramers loaded with […]. This was done for both groups of mice.

[PHG][2-AOC]FGLALIEV was tested, and the “LLFGLALIEV-specific CD8+ T cells in blood” value [1] was “specific T cell numbers were higher”.
In the case of “[am-phg][NVA]AGIGILT[PRG] ({am‑phg-NVA}-AGIGILT-{PRG}; reading uncertain; also: printed as [am-phg][NVA]AGIGILT[PRG])”, the “[…]-specific CD8+ T cells in blood” value [2] was “specific T cell numbers were higher”.

From patent publication EP2649091B1, “IMMUNE RESTRICTED PEPTIDES WITH INCREASED EFFICACY” (Stichting Het Nederlands Kanker Instituut, priority 2010, dated 2012)
